Assay results as given in patent publication US12492183B2, “Tetrahydroquinazoline derivatives as selective cytotoxic agents” (Merck Sharp & Dohme LLC, priority 2020, dated 2025).

Each compound was assayed on PBMCs infected with VSV-G pseudotyped HIV virus (VSV-G/pNLG1-P2A-ΔEnv) (assay: cells). Conditions: Homo sapiens, PBMC, read-out: TACK EC50.
Format: cell-based

With `O=C1Nc2cc(Cc3ccccn3)c(F)cc2[C@@](C#CC2CC2)(C(F)(F)F)N1` [Example 53, (S)-4-(cyclopropylethynyl)-6-fluoro-7-(pyridin-2-ylmeth-yl)-4-(trifluoromethyl)-3,4-dihydroquinazolin-2(1H)-one] as the compound, how does the EC50 read?
The EC50 was 137 nM.

How did the EC50 turn out when `Cc1nc(C)c(Cc2cc3c(cc2Cl)[C@@](C#CC2CC2)(C(F)(F)F)NC(=O)N3)c(=O)[nH]1` (single isomer, unassigned) [Example 62B] was run?
Its EC50 is 68.7 nM.

With `NC(=O)c1ccc(Cc2ccc3c(c2)NC(=O)N[C@]3(C#CC2CC2)C(F)(F)F)cc1` [Example 8, (S)-4-((4-(cyclopropylethynyl)-2-oxo-4-(trifluoromethyl)-1,2,3,4-tetrahydroquinazolin-7-yl)meth-yl)benzamide] as the compound, how does the EC50 read?
Its EC50 is 262 nM.

For `Nc1nccc(Cc2cc3c(cc2Cl)[C@@](C#CC2CC2)(C(F)(F)F)NC(=O)N3)n1` [Example 31, (S)-7-((2-aminopyrimidin-4-yl)methyl)-6-chloro-4-(cyclo-propylethynyl)-4-(trifluoro-methyl)-3,4-dihydroquinazo-lin-2(1H)-one], which EC50 is on record?
The EC50 was 58.7 nM.

Which EC50 does the source give for `Cc1nc(C)c(Cc2ccc3c(c2)NC(=O)N[C@]3(C#CC2CC2)C(F)(F)F)c(=O)[nH]1` [Example 19, (S)-4-(cyclopropylethynyl)-7-((2,4-dimethyl-6-oxo-1,6-dihydropyrimidin-5-yl)meth-yl)-4-(trifluoromethyl)-3,4-dihydroquinazolin-2(1H)-one] here?
The EC50 was 136 nM.

Which EC50 does the source give for `CC(F)(F)[C@@]1(C#CC2CC2)NC(=O)Nc2cc(Cc3ccnc(N)n3)ccc21` [Example 26, (S)-7-((2-aminopyrimidin-4-yl)methyl)-4-(cyclopropyl-ethynyl)-4-(1,1-difluoroethyl)-3,4-dihydroquinazolin-2(1H)-one] here?
The EC50 was 31.2 nM.

`Nc1nc(Cc2cc3c(cc2F)[C@@](C#CC2CC2)(C(F)(F)F)NC(=O)N3)cnc1CO` [Example 46, (S)-7-((6-amino-5-(hydroxymethyl)pyrazin-2-yl)methyl)-4-(cyclopropylethynyl)-6-fluoro-4-(trifluoromethyl)-3,4-dihydroquinazolin-2(1H)-one] was tested. Which EC50 did it give?
The EC50 was 108 nM.

How did the EC50 turn out when `CN1C(=O)Nc2cc(Cc3ccnc(N)n3)c(F)cc2[C@@]1(C#CC1CC1)C(F)(F)F` (single isomer, unassigned) [Example 40] was run?
The EC50 was 41.6 nM.

Which EC50 does the source give for `Nc1nc(Cl)cc(Cc2ccc3c(c2)NC(=O)N[C@]3(C#CC2CC2)C(F)(F)F)n1` [Example 48, (S)-7-((2-amino-6-chloropyrimidin-4-yl)methyl)-4-(cyclopropylethynyl)-4-(trifluoromethyl)-3,4-dihydroquinazolin-2(1H)-one] here?
The EC50 was 142 nM.

`Cc1cnc(N)nc1Cc1ccc2c(c1)NC(=O)N[C@]2(C#CC1CC1)C(F)(F)F` [Example 34, (S)-7-((2-amino-5-methylpyr-imidin-4-yl)methyl)-4-(cyclo-propylethynyl)-4-(trifluoro-methyl)-3,4-dihydroquinazo-lin-2(1H)-one] was tested. Which EC50 did it give?
Its EC50 is 155 nM.

For `Cc1nc(C)c(Cc2cc3c(cc2F)[C@@](C#CC2CC2)(C(F)(F)F)NC(=O)N3)c(=O)[nH]1` [Example 17, (S)-4-(cyclopropylethynyl)-7-((2,4-dimethyl-6-oxo-1,6-dihydropyrimidin-5-yl)meth-yl)-6-fluoro-4-(trifluorometh-yl)-3,4-dihydroquinazolin-2(1H)-one], which EC50 is on record?
The EC50 was 46 nM.

For `Nc1cc(Cc2cc3c(cc2F)[C@@](C#CC2CC2)(C(F)(F)F)NC(=O)N3)ccn1` [Example 14, (S)-2-amino-4-((4-(cyclopropyl-ethynyl)-6-fluoro-2-oxo-4-(trifluoromethyl)-1,2,3,4-tetra-hydroquinazolin-7-yl)methyl)-pyridin-1-ium 2,2,2-trifluoro-acetate], which EC50 is on record?
The EC50 was 121 nM.

Which EC50 does the source give for `CCN1C(=O)Nc2cc(Cc3c(C)nc(C)[nH]c3=O)ccc2[C@@]1(C#CC1CC1)C(F)(F)F` [Example 21, (S)-4-(cyclopropylethynyl)-7-((2,4-dimethyl-6-oxo-1,6-dihydropyrimidin-5-yl)methyl)-3-ethyl-4-(trifluoromethyl)-3,4-dihydroquinazolin-2(1H)-one] here?
Its EC50 is 139 nM.

Which EC50 does the source give for `Cc1nc(C)c(Cc2ccc3c(c2)NC(=O)N(C(C)C)[C@]3(C#CC2CC2)C(F)(F)F)c(=O)[nH]1` [Example 23, (S)-4-(cyclopropylethynyl)-7-((2,4-dimethyl-6-oxo-1,6-dihydropyrimidin-5-l)meth-yl)-3-isopropyl-4-(trifluoro-methyl)-3,4-dihydroquin-azolin-2(1H)-one] here?
Its EC50 is 151 nM.

Which EC50 does the source give for `Cc1cc2c(cc1Cc1ccnc(N)n1)NC(=O)N[C@]2(C#CC1CC1)C(F)(F)F` [Example 33, (S)-7-((2-aminopyrimidin-4-yl)methyl)-4-(cyclopropyl-ethynyl)-6-methyl-4-(trifluoro-methyl)-3,4-dihydroquinazo-lin-2(1H)-one] here?
Its EC50 is 183 nM.

With `N#Cc1c(Cc2ccc3c(c2)NC(=O)N[C@]3(C#CC2CC2)C(F)(F)F)ccnc1N` [Example 50, (S)-2-amino-4-((4-(cyclo-propylethynyl)-2-oxo-4-(trifluoromethyl)-1,2,3,4-tetrahydroquinazolin-7-yl)-methyl)nicotinonitrile] as the compound, how does the EC50 read?
The EC50 was 34.9 nM.

`N#Cc1cc(Cc2cc3c(cc2F)[C@@](C#CC2CC2)(C(F)(F)F)NC(=O)N3)[n+]([O-])cc1OCCO` [Example 43, (S)-4-cyano-2-((4-(cyclopropylethynyl)-6-fluoro-2-oxo-4-(trifluoromethyl)-1,2,3,4-tetrahydroquinazolin-7-yl)methyl)-5-(2-hydroxyethoxy)pyridine 1-oxide] was tested. Which EC50 did it give?
The EC50 was 166 nM.

Which EC50 does the source give for `O=C1Nc2cc(Cc3ccc(OCCO)cn3)c(F)cc2[C@@](C#CC2CC2)(C(F)(F)F)N1` [Example 42, (S)-4-(cyclopropylethynyl)-6-fluoro-7-((5-(2-hydroxyethoxy)pyridin-2-yl)methyl)-4-(trifluoromethyl)-3,4-dihydroquinazolin-2(1H)-one] here?
Its EC50 is 161 nM.

For `Nc1nccc(Cc2cc3c(cc2F)[C@@](C#CC2CC2)(C(F)(F)F)NC(=O)N3)n1` [Example 38, (S)-7-((2-aminopyrimidin-4-yl)methyl)-4-(cyclopropylethynyl)-6-fluoro-4-(trifluoromethyl)-3,4-dihydroquinazolin-2(1H)-one], which EC50 is on record?
The EC50 was 38.6 nM.

`Cc1nc(C)c(Cc2ccc3c(c2)NC(=O)N(CC(F)F)[C@]3(C#CC2CC2)C(F)(F)F)c(=O)[nH]1` [Example 24, (S)-4-(cyclopropylethynyl)-3-(2,2-difluoroethyl)-7-((2,4-dimethyl-6-oxo-1,6-dihydropyrimidin-5-l)meth-yl)-4-(trifluoromethyl)-3,4-dihydroquinazolin-2(1H)-one] was tested. Which EC50 did it give?
The EC50 was 146 nM.

Which EC50 does the source give for `O=C1Nc2cc(Cc3ncc[nH]c3=O)ccc2[C@@](C#CC2CC2)(C(F)(F)F)N1` [Example 61, (S)-4-(cyclopropylethynyl)-7-((3-hydroxypyrazin-2-yl)methyl)-4-(trifluoromethyl)-3,4-dihydroquinazolin-2(1H)-one] here?
Its EC50 is 65 nM.

Which EC50 does the source give for `Nc1cc(Cc2ccc3c(c2)NC(=O)N[C@]3(C#CC2CC2)C(F)(F)F)c(F)cn1` [Example 37, (S)-7-((2-amino-5-fluoro-pyridin-4-yl)methyl)-4-(cyclopropylethynyl)-4-(trifluoromethyl)-3,4-dihydroquinazolin-2(1H)-one] here?
Its EC50 is 168 nM.

`Nc1ccc(F)c(Cc2ccc3c(c2)NC(=O)N[C@]3(C#CC2CC2)C(F)(F)F)n1` [Example 36, (S)-7-((6-amino-3-fluoro-pyridin-2-yl)methyl)-4-(cyclopropylethynyl)-4-(trifluoromethyl)-3,4-dihydroquinazolin-2(1H)-one] was tested. Which EC50 did it give?
The EC50 was 155 nM.
